Tests used:
[1] = Lipid nanoparticle size and polydispersity by dynamic light scattering; format: physicochemical; details: LNP comprising the compound, hEPO mRNA; for Size (nm): cationic lipid/DSPC/cholesterol/PEG-lipid 50:10:38.5:1.5
Method: (§1) Briefly, a cationic lipid provided herein, DSPC, cholesterol, and PEG-lipid were solubilized in ethanol at a molar ratio of 50:10:38.5:1.5, and mRNA were diluted in 10 to 50 mM citrate buffer, pH=4. The LNPs were prepared at a total lipid to mRNA weight ratio of approximately 10:1 to 30:1 by mixing the ethanolic lipid solution with the aqueous mRNA solution at a volume ratio of 1:3 using a microfluidic apparatus, total flow rate ranging from 9-30 mL/min. Ethanol were thereby removed and replaced by DPBS using dialysis. Finally, the lipid nanoparticles were filtered through a 0.2 μm sterile filter.
(§2) Lipid nanoparticle size were determined by dynamic light scattering using a Malvern Zetasizer Nano ZS (Malvern UK) using a 173° backscatter detection mode. The encapsulation efficiency of lipid nanoparticles were determined using a Quant-it Ribogreen RNA quantification assay kit (Thermo Fisher Scientific, UK) according to the manufacturer's instructions.

[2] = system: human erythropoietin (hEPO) mRNA expression; test: Animal Study 1: hEPO mRNA LNPs i.v. in mice, serum EPO by ELISA; format: in vivo; details: female ICR mice, 0.5 mg/kg tail vein injection, blood e.g. 6 hours post administration; relative to MC3 LNP
Method: Lipid nanoparticles comprising compounds in the following table encapsulating human erythropoietin (hEPO) mRNA were systemically administered to 6-8 week old female ICR mice (Xipuer-Bikai, Shanghai) at 0.5 mg/kg dose by tail vein injection and mice blood were sampled at specific time points (e.g., 6 hours) post administration. In addition to the aforementioned tested groups, lipid nanoparticles comprising dilinoleylmethyl-4-dimethylaminobutyrate (DLin-MC3-DMA, usually abbreviated to MC3) encapsulating hEPO mRNA were similarly administered at the same dose to age and gender comparative groups of mice as a positive control.
Mice were euthanized by CO2 overdoses after the last sampling time point. Serum were separated from total blood by centrifugation at 5000 g for 10 minutes at 4 T, snap-frozen and stored at −80 T for analysis. ELISA assay were carried out using a commercial kit (DEP00, R&D systems) according to manufacturer's instructions.
Characteristics of tested lipid nanoparticles, including EPO expression levels over MC3 measured from the tested group are listed in the table below.

[3] = Encapsulation efficiency of lipid nanoparticles (Quant-it Ribogreen RNA assay); format: physicochemical; details: LNP comprising the compound, hEPO mRNA
Method: as §1, §2

[4] = Apparent pKa of LNP formulations (TNS fluorescence assay); format: physicochemical; details: LNP formulation, TNS assay (Table 2)
Method: As reported in literature, the apparent pKa of LNP formulations correlates with the delivery efficiency of LNPs for nucleic acids in vivo. The apparent pKa of each formulation was determined using an assay based on fluorescence of 2-(p-toluidino)-6-napthalene sulfonic acid (TNS). LNP formulations comprising of cationic lipid/DSPC/cholesterol/DMG-PEG (50/10/38.5/1.5 mol %) in PBS were prepared as described above. TNS was prepared as a 300 μM stock solution in distilled water. LNP formulations were diluted to 0.1 mg/mL total lipid in 3 mL of buffered solutions containing 50 mM sodium citrate, 50 mM sodium phosphate, 50 mM sodium borate, and 30 mM sodium chloride where the pH ranged from 3 to 9. An aliquot of the TNS solution was added to give a final concentration of […] and following vortex mixing fluorescence intensity was measured at room temperature in a Molecular Devices Spectramax iD3 spectrometer using excitation and mission wavelengths of 325 nm and 435 nm. A sigmoidal best fit analysis was applied to the fluorescence data and the pKa value was measured as the pH giving rise to half-maximal fluorescent intensity.

Row | SMILES | Polydispersity [1] | Size (nm) [1] [nm] | EPO expression over MC3 [2] | Encapsulation efficiency [3] [%] | Apparent pKa [4]
1 | CCCCCCCCOC(CCCCCN(CCCCCO)CCCCCC(OCCCCCCCC)OCCCCCCCC)OCCCCCCCC [Compound 19] | 0.07 | 64.48 | B (≥1 and <2) | 95.52 | 6.216
2 | CCCCC/C=C\C/C=C\CCCCCCCC(=O)OCCCCCCN(CCCCC(COC(=O)CCCCCCC)COC(=O)CCCCCCC)C1CCC(O)CC1 (stereo not drawn) [Compound 37] | 0.005279 | 93.13 | A (≥2) | 88.34 | 6.69
3 | CCCCCCCCOC(CCCCCN(CCCCCC(OCCCCCCCC)OCCCCCCCC)CCOCCO)OCCCCCCCC [Compound 17] | 0.056 | 79.67 | C (≥0.1 and <1) | 96.64 | 6.189
4 | CCCCCCCC/C=C\CCCCCCCC(=O)OCCCCCCN(CCCCC(COC(=O)CCCCCCC)COC(=O)CCCCCCC)C1CCC(O)CC1 (stereo not drawn) [Compound 38] | 0.06385 | 100.3 | B (≥1 and <2) | 87.69 | 6.799
5 | CCCCCCCC(=O)OCC(CCCCN(CCCCCNc1c(N(C)C)c(=O)c1=O)CCCCC(COC(=O)CCCCCCC)COC(=O)CCCCCCC)COC(=O)CCCCCCC [Compound 28] | 0.077 | 68.48 | C (≥0.1 and <1) | 89.90 | 6.593
6 | CCCCCCCC/C=C\CCCCCCCC(=O)OCCCCCCN(CCO)CCCCC(COC(=O)CCCCCCC)COC(=O)CCCCCCC [Compound 24] | 0.07 | 70.66 | C (≥0.1 and <1) | 90.29 | 6.745
7 | CCCCCCCCC(CCCCCC)CNC(=O)CCCCCN(CCCCC(COC(=O)CCCCCCC)COC(=O)CCCCCCC)CCC1(O)CCCCC1 (stereo not drawn) [Compound 63] | 0.159 | 130.62 | C (≥0.1 and <1) | 90.10 | 6.297
8 | CCCCCCCC(=O)OCC(CCCCN(CCCCC(COC(=O)CCCCCCC)COC(=O)CCCCCCC)C1CC(O)C1)COC(=O)CCCCCCC (stereo not drawn) [Compound 23] | 0.084 | 69.97 | A (≥2) | 89.04 | 6.601
9 | CCCCCCCCC(CCCCCC)CNC(=O)CCCCCN(CCO)CCCCC(COC(=O)C(CCCCCC)CCCCCCCC)COC(=O)C(CCCCCC)CCCCCCCC (stereo not drawn) [Compound 26] | 0.01 | 55.11 | C (≥0.1 and <1) | 85.33 | 6.332
10 | CCCCCCCCCCCCCCCCCC(=O)OCCCCCCN(CCO)CCCCC(COC(=O)CCCCCCC)COC(=O)CCCCCCC [Compound 21] | 0.017 | 73.11 | B (≥1 and <2) | 93.42 | 6.962
11 | CCCCCCCC(=O)OCC(CCCCN(CCCCC(COC(=O)CCCCCCC)COC(=O)CCCCCCC)[C@@H]1CC[C@H](O)C1)COC(=O)CCCCCCC [Compound 47] | 0.039 | 91.46 | A (≥2) | 89.99 | 6.767
12 | CCCCCCCC(=O)OCC(COC(=O)CCCCCCC)COC(=O)CCCCCN(CCCCCO)CCCCCC(=O)OCC(COC(=O)CCCCCCC)COC(=O)CCCCCCC [Compound 68] | 0.010 | 100.16 | A (≥2) | 94.91 | 6.582
13 | CCCCCCCC(=O)OCC(CCCCN(CCCCC(COC(=O)CCCCCCC)COC(=O)CCCCCCC)CCCNc1c(N(C)CCC)c(=O)c1=O)COC(=O)CCCCCCC [Compound 35] | 0.05652 | 71.02 | A (≥2) | 89.19 | 6.138
14 | CCCCCCCC(=O)OCC(CCCCN(CCCCC(COC(=O)CCCCCCC)COC(=O)CCCCCCC)[C@H]1C=C[C@@H](CO)C1)COC(=O)CCCCCCC [Compound 48] | 0.027 | 92.53 | A (≥2) | 84.12 | 6.143
15 | CCCCCCCCOC(CCCCCN(CCCCO)CCCCCC(OCCCCCCCC)OCCCCCCCC)OCCCCCCCC [Compound 18] | 0.057 | 62.64 | B (≥1 and <2) | 93.58 | 6.251
16 | CCCCCCCC(=O)OCC(COC(=O)CCCCCCC)OCCCN(CCCOC(COC(=O)CCCCCCC)COC(=O)CCCCCCC)CCN(CCO)C1CCCCC1 [Compound 14] | 0.049 | 91.43 | A (≥2) | 82.84 | 6.457
17 | CCCCCCCCCCCCC(=O)OCC(COC(=O)CCCCCCCCCCCC)COC(=O)CCCCCN(CCO)CCCCCC(=O)OCC(COC(=O)CCCCCCCCCCCC)COC(=O)CCCCCCCCCCCC [Compound 74] | 0.012 | 66.23 | C (≥0.1 and <1) | 94.82 | 6.283
18 | CCCCCCCC(=O)OCC(COC(=O)CCCCCCC)COC(=O)CCCCCN(CCCO)CCCCCC(=O)OCC(COC(=O)CCCCCCC)COC(=O)CCCCCCC [Compound 66] | 0.010 | 113.3 | A (≥2) | 95.46 | 6.379
19 | CCCCCCCC(=O)OCC(CCCCN(CCCCC(COC(=O)CCCCCCC)COC(=O)CCCCCCC)[C@H]1C[C@@H](O)C1)COC(=O)CCCCCCC [Compound 43] | 0.057 | 64.77 | A (≥2) | 89.21 | 6.653
20 | CCCCC/C=C\C/C=C\CCCCCCCC(=O)OCCCCCCN(CCO)CCCCC(COC(=O)CCCCCCC)COC(=O)CCCCCCC [Compound 22] | 0.051 | 79.16 | A (≥2) | 89.98 | 6.748
21 | CCCCCCCCCCCCCCCC(=O)OCCCCCCN(CCO)CCCCC(COC(=O)CCCCCCC)COC(=O)CCCCCCC [Compound 20] | 0.078 | 72.72 | A (≥2) | 91.22 | 6.889
22 | CCCCCCCCC(CCCCCC)COC(=O)CCCCCN(CCO)CCCCCC(=O)OCC(CC)(COC(=O)CCCCCCC)COC(=O)CCCCCCC (stereo not drawn) [Compound 84] | 0.022 | 72.82 | A (≥2) | 94.81 | 6.355
23 | CCCCCCCCCCCC(=O)OCC(COC(=O)CCCCCCCCCCC)COC(=O)CCCCCN(CCO)CCCCCC(=O)OCC(COC(=O)CCCCCCCCCCC)COC(=O)CCCCCCCCCCC [Compound 73] | 0.010 | 71.34 | C (≥0.1 and <1) | 96.37 | 6.536
24 | CCCCCCCC(=O)OCC(CCCCN(CCCCC(COC(=O)CCCCCCC)COC(=O)CCCCCCC)C1CC(CO)(CO)C1)COC(=O)CCCCCCC [Compound 61] | 0.066 | 72.95 | C (≥0.1 and <1) | 91.26 | 7.32

Reference: patent US20240238212A1, “LIPID COMPOUNDS AND LIPID NANOPARTICLE COMPOSITIONS” (SUZHOU ABOGEN BIOSCIENCES CO., LTD., priority 2022, published 2024)
